Data published in patent USRE42890E1, “Furazanobenzimidazoles” (Basilea Pharmaceutica AG, priority 2003, dated 2011).
Like-named read-outs stand apart in the source and are kept apart here.

What was measured:
Jurkat = assay: MTS proliferation assay, Jurkat; type: cell-based, human; settings: 72 h incubation, read-out: MTS proliferation assay IC 50 Jurkat
Summary of the method: (§1)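 Human lines, EGFP-transfected or not, grow in RPMI-1640 plus 5% or 10% FCS and 2-mercaptoethanol. They receive test compound for 72 h at final concentrations of 10, 3, 1 and 0.3 μM, and MTS conversion is measured at 492 nm.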

Jily = assay: MTS proliferation assay, Jily; type: cell-based; settings: 72 h incubation, read-out: MTS proliferation assay IC 50 Jily
Summary of the method: (§2)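 Seed cells in complete RPMI-1640 medium and allow 24 h attachment. Add compounds to final 10 μM, 3 μM, 1 μM or 0.3 μM and incubate 72 h at 37° C. Add MTS, incubate 3 h more, then measure absorption at 492 nm.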

HT1080 = assay: MTS proliferation assay, HT1080; type: cell-based, human; settings: HT1080, 72 h incubation, read-out: MTS proliferation assay IC 50 HT1080
Summary of the method: as §1

HeLa = assay: MTS proliferation assay, HeLa; type: cell-based, human; settings: 72 h incubation, read-out: MTS proliferation assay IC 50 HeLa
Summary of the method: as §1

MRC5 = assay: MTS proliferation assay, MRC5; type: cell-based; settings: MRC5, 72 h incubation, read-out: MTS proliferation assay IC 50 MRC5
Summary of the method: as §2

[1] = test system: adherent cells or suspension cells; assay: Hoechst 33342 nuclear staining (fraction of apoptotic nuclei); type: cell-based; design: key: 0 relating to no activity; 1 relating to weak activity comprising less than 70% of the cells; score 2 relating to strong activity comprising more than 70% of the cells

Structure (SMILES) | IC50 (Jurkat) [nM] | IC50 (Jily) [nM] | Hoechst 33342 nuclear staining score ([1]; H460, conc 0.01 μm) | Hoechst 33342 nuclear staining score ([1]; H460, conc 0.1 μm) | Hoechst 33342 nuclear staining score ([1]; H460, conc 1 μm) | Hoechst 33342 nuclear staining score ([1]; HeLa, conc 0.01 μm) | Hoechst 33342 nuclear staining score ([1]; HeLa, conc 0.1 μm) | Hoechst 33342 nuclear staining score ([1]; HeLa, conc 1 μm) | Hoechst 33342 nuclear staining score ([1]; Jily, conc 0.01 μm) | Hoechst 33342 nuclear staining score ([1]; Jily, conc 0.1 μm) | Hoechst 33342 nuclear staining score ([1]; Jily, conc 1 μm) | Hoechst 33342 nuclear staining score ([1]; Jurkat, conc 0.01 μm) | Hoechst 33342 nuclear staining score ([1]; Jurkat, conc 0.1 μm) | Hoechst 33342 nuclear staining score ([1]; Jurkat, conc 1 μm) | Hoechst 33342 nuclear staining score ([1]; MRC5, conc 0.01 μm) | Hoechst 33342 nuclear staining score ([1]; MRC5, conc 0.1 μm) | Hoechst 33342 nuclear staining score ([1]; MRC5, conc 1 μm) | Hoechst 33342 nuclear staining score ([1]; PBLs, conc 0.01 μm) | Hoechst 33342 nuclear staining score ([1]; PBLs, conc 0.1 μm) | Hoechst 33342 nuclear staining score ([1]; PBLs, conc 1 μm) | further results
Nc1nonc1-c1nc2ccccc2n1COc1ccc([N+](=O)[O-])cc1 [Example 98] | 100 to 1000 | 100 to 1000 | 0 | 0 | 0 | 0 | 0 | 0 | 0 | 0 | 2 (score 2 relating to strong activity comprising more than 70% of the cells) | 0 | 0 | 2 (score 2 relating to strong activity comprising more than 70% of the cells) | 0 | 0 | 0 | 0 | 0 | 0 | IC50 (HT1080): > 1000 nM; IC50 (HeLa): > 1000 nM; IC50 (MRC5): > 1000 nM
Nc1nonc1-c1nc2ccccc2n1CC(=O)/C=C/c1ccc(Cl)cc1 [Example 118] | > 1000 | > 1000 | 0 | 0 | 0 | 0 | 0 | 0 | 0 | 0 | 1 (1 relating to weak activity comprising less than 70% of the cells) | 0 | 0 | 0 | 0 | 0 | 0 | 0 | 0 | 0 | IC50 (HT1080): > 1000 nM; IC50 (HeLa): > 1000 nM; IC50 (MRC5): > 1000 nM
Nc1nonc1-c1nc2ccccc2n1CC(=O)c1cccs1 [Example 72] | 100 to 1000 | 100 to 1000 | 0 | 0 | 2 (score 2 relating to strong activity comprising more than 70% of the cells) | 0 | 0 | 2 (score 2 relating to strong activity comprising more than 70% of the cells) | 0 | 0 | 2 (score 2 relating to strong activity comprising more than 70% of the cells) | 0 | 1 (1 relating to weak activity comprising less than 70% of the cells) | 2 (score 2 relating to strong activity comprising more than 70% of the cells) | 0 | 0 | 0 | 0 | 0 | 0 | IC50 (HT1080): 100 to 1000 nM; IC50 (HeLa): 100 to 1000 nM; IC50 (MRC5): 100 to 1000 nM
N#CCCNc1nonc1-c1nc2ccccc2n1CC(=O)c1ccc(Cl)cc1 [Example 6, 4-[1-(4-Chlorophenacyl)-1H-benzimidazol-2-yl]-furazan-3-yl-N-(2-cyanoethyl)-amine] | – | 10 to 100 | 0 | 2 (score 2 relating to strong activity comprising more than 70% of the cells) | 2 (score 2 relating to strong activity comprising more than 70% of the cells) | 0 | 2 (score 2 relating to strong activity comprising more than 70% of the cells) | 2 (score 2 relating to strong activity comprising more than 70% of the cells) | 2 (score 2 relating to strong activity comprising more than 70% of the cells) | 2 (score 2 relating to strong activity comprising more than 70% of the cells) | 2 (score 2 relating to strong activity comprising more than 70% of the cells) | 2 (score 2 relating to strong activity comprising more than 70% of the cells) | 2 (score 2 relating to strong activity comprising more than 70% of the cells) | 2 (score 2 relating to strong activity comprising more than 70% of the cells) | 2 (score 2 relating to strong activity comprising more than 70% of the cells) | 2 (score 2 relating to strong activity comprising more than 70% of the cells) | 2 (score 2 relating to strong activity comprising more than 70% of the cells) | 0 | 0 | 0 | IC50 (Jurkat; Homo sapiens): < 10 nM; IC50 (HT1080; Homo sapiens, HT-1080): 10 to 100 nM; IC50 (HeLa; Homo sapiens): 10 to 100 nM; IC50 (MRC5; Homo sapiens): 100 to 1000 nM
Nc1nonc1-c1nc2ccccc2n1CC(=O)c1ccc([N+](=O)[O-])cc1 [Example 49] | 100 to 1000 | 100 to 1000 | 0 | 0 | 0 | 0 | 0 | 1 (1 relating to weak activity comprising less than 70% of the cells) | 0 | 0 | 1 (1 relating to weak activity comprising less than 70% of the cells) | 0 | 0 | 2 (score 2 relating to strong activity comprising more than 70% of the cells) | 0 | 0 | 0 | 0 | 0 | 0 | IC50 (HT1080): > 1000 nM; IC50 (HeLa): > 1000 nM; IC50 (MRC5): > 1000 nM
